Results as given in patent US20060003023A1, “Microbicidal composition” (priority 2004, published 2006).
Where “and” joins values, the source holds several entries; their conditions need not be identical. Equal entries are not always repeated.

Tests used:
[1] = tested on: Pseudomonas aeruginosa (ATCC 15442); test: High resolution MIC combination test (minimum inhibitory concentration), 96-well microtiter plate, mineral salts medium with 2% glucose
Source text: When the sum of Qa/QA and Qb/QB is greater than one, antagonism is indicated. […] The lower the SI, the greater the synergy shown by that particular mixture. The minimum inhibitory concentration (MIC) of a microbicide is the lowest concentration tested under a specific set of conditions that prevents the growth of added microorganisms.
The tests were set up with 96-well microtiter plate using the Biomek™ 2000 Workstation employing a high resolution MIC/MBC combination test method, which provides multiple combinations of two biocides in one test plate. […] Samples (10 μl) taken from each well of the MIC plate were transferred to fresh media in the MBC plates and observed for the presence of surviving (viable) microorganisms over time. […] The synergistic ratio range of the biocide combination is a reflection of the total activity of both inhibition (MIC) and killing MBC).
Each well received 20 μl of a 24-hour pure culture suspension of Pseudomonas aeruginosa (ATCC 15442) at a final density of 106 colony forming units (CFU) per ml. Cell density was adjusted to an optical density of 0.09 at 660 nm using a spectrophotometer.
Tests were set up in duplicate with different starting concentrations of biocides to increase the number of possible combinations displaying antimicrobial activity.
All biocide results are reported on an active ingredient basis in ppm (parts per million).

[2] = tested on: Pseudomonas aeruginosa (ATCC 15442); test: High resolution MBC combination test (minimum biocidal concentration), recovery in Trypticase Soy Broth plus thioglycolate

**Q.** Which results are given for `CC1(C)C(=O)N(Br)C(=O)N1Cl` [BCDMH, 3-Bromo-1-chloro-5,5-dimethylhydantoin]?
**A.** A alone ([1]; MIC of BCDMH alone, Day 1, Expt MIC 1): 3.13 ppm total oxidant; A alone ([1]; MIC of BCDMH alone, Day 1, Expt MIC 2): 3.13 ppm total oxidant; A alone ([1]; MIC of BCDMH alone, Day 3, Expt MIC 1): 6.25 ppm total oxidant; A alone ([1]; MIC of BCDMH alone, Day 3, Expt MIC 2): 6.25 ppm total oxidant; A alone ([1]; MIC of BCDMH alone, Day 5, Expt MIC 1): 6.25 ppm total oxidant; A alone ([1]; MIC of BCDMH alone, Day 5, Expt MIC 2): 6.25 ppm total oxidant; A alone ([2]; MBC of BCDMH alone, Day 1, Expt MBC 1): 6.25 ppm total oxidant; A alone ([2]; MBC of BCDMH alone, Day 1, Expt MBC 2): 6.25 ppm total oxidant; A alone ([2]; MBC of BCDMH alone, Day 3, Expt MBC 2): 6.25 ppm total oxidant

**Q.** Which results are given for `O=c1[nH]sc2ccccc12` [BIT, 1,2-Benzisothiazolin-3-one]?
**A.** A alone [1]: 25.00 ppm; A alone ([1]; BIT alone, ppm active ingredient, day 1, MIC 2): 50.00 ppm; A alone ([1]; BIT alone, ppm active ingredient, day 3, MIC 2): 100.00 ppm; a/A ([1]; BIT comb./alone, day 1, MIC 1): 0.01; a/A ([1]; BIT comb./alone, day 1, MIC 2): 0.50 and 0.25; a/A ([1]; BIT comb./alone, day 3, MIC 2): 0.50; a comb. ([1]; BIT combined with stabilized hypochlorite and bromide, ppm active ingredient, day 1, MIC 2): 25.00 ppm and 12.50 ppm; a comb. ([1]; BIT combined with stabilized hypochlorite and bromide, ppm active ingredient, day 3, MIC 2): 50.00 ppm; A alone ([2]; BIT alone, ppm active ingredient, day 1, MBC 2): 100.00 ppm; a/A ([2]; BIT comb./alone, day 1, MBC 2): 0.50; a comb. ([2]; BIT combined with stabilized hypochlorite and bromide, ppm active ingredient, day 1, MBC 2): 50.00 ppm

**Q.** How did the A alone ([1]; DBNPA alone, ppm active ingredient, day 1, MIC 1) turn out when `N#CC(Br)(Br)C(N)=O` [DBNPA, 2,2-Dibromo-nitrilo-propionamide] was run?
**A.** The A alone was 6.25 ppm.

**Q.** What about the A alone ([1]; DBNPA alone, ppm active ingredient, day 1, MIC 2) of the same molecule?
**A.** Its A alone is 6.25 ppm.

**Q.** And the A alone ([1]; DBNPA alone, ppm active ingredient, day 5, MIC 1)?
**A.** Its A alone is 12.50 ppm and 6.25 ppm.

**Q.** What about the A alone ([1]; DBNPA alone, ppm active ingredient, day 5, MIC 2) of the same molecule?
**A.** The A alone was 12.50 ppm.

**Q.** And the a/A ([1]; DBNPA comb./alone, day 5, MIC 1)?
**A.** Its a/A is 0.32 and 0.50.

**Q.** And the a/A ([1]; DBNPA comb./alone, day 5, MIC 2)?
**A.** Its a/A is 0.32.

**Q.** What about the a comb. ([1]; DBNPA combined with stabilized hypochlorite and bromide, ppm active ingredient, day 1, MIC 1) of the same molecule?
**A.** The a comb. was 1.56 ppm and 0.78 ppm.

**Q.** What about the a comb. ([1]; DBNPA combined with stabilized hypochlorite and bromide, ppm active ingredient, day 5, MIC 1) of the same molecule?
**A.** Its a comb. is 4.00 ppm and 3.13 ppm.

**Q.** And the a comb. ([1]; DBNPA combined with stabilized hypochlorite and bromide, ppm active ingredient, day 5, MIC 2)?
**A.** Its a comb. is 4.00 ppm.

**Q.** And the A alone ([2]; DBNPA alone, ppm active ingredient, day 1, MBC 1)?
**A.** Its A alone is 12.50 ppm.

**Q.** And the a/A ([2]; DBNPA comb./alone, day 1, MBC 1)?
**A.** Its a/A is 0.50.

**Q.** And the a comb. ([2]; DBNPA combined with stabilized hypochlorite and bromide, ppm active ingredient, day 1, MBC 1)?
**A.** Its a comb. is 6.25 ppm.

**Q.** For `CCCCCCCCn1sc(Cl)c(Cl)c1=O` [DCOIT, 4,5-Dichloro-2-n-octyl-4-isothiazolin-3-one], which “A alone (MIC)” value ([1]; Day 1, MIC 1) is on record?
**A.** Its value is 2.50 ppm active ingredient.

**Q.** What about the “A alone (MIC)” value ([1]; Day 1, MIC 2) of the same molecule?
**A.** The value was 2.50 ppm active ingredient.

**Q.** And the “A alone (MIC)” value ([1]; Day 3, MIC 1)?
**A.** Its value is 5.00 ppm active ingredient and 10.00 ppm active ingredient.

**Q.** And the “A alone (MIC)” value ([1]; Day 3, MIC 2)?
**A.** Its value is 10.00 ppm active ingredient and 5.00 ppm active ingredient.

**Q.** And the “A alone (MIC)” value ([1]; Day 5, MIC 1)?
**A.** The value was 5.00 ppm active ingredient.

**Q.** What about the “A alone (MIC)” value ([1]; Day 5, MIC 2) of the same molecule?
**A.** Its value is 10.00 ppm active ingredient.

**Q.** And the “A alone (MBC)” value ([2]; Day 1, MBC 1)?
**A.** Its value is 10.00 ppm active ingredient.

**Q.** And the “A alone (MBC)” value ([2]; Day 1, MBC 2)?
**A.** The value was 10.00 ppm active ingredient.

**Q.** Which results are given for `O=CCCCC=O` [GLUT, Pentane-1,5-dial]?
**A.** A alone ([1]; glutaraldehyde alone, ppm active ingredient, day 1, MIC 1): 25.00 ppm; A alone ([1]; glutaraldehyde alone, ppm active ingredient, day 1, MIC 2): 25.00 ppm; A alone ([1]; glutaraldehyde alone, ppm active ingredient, day 3, MIC 1): 25.00 ppm; A alone ([1]; glutaraldehyde alone, ppm active ingredient, day 3, MIC 2): 50.00 ppm; A alone ([1]; glutaraldehyde alone, ppm active ingredient, day 5, MIC 1): 25.00 ppm; A alone ([1]; glutaraldehyde alone, ppm active ingredient, day 5, MIC 2): 50.00 ppm; a/A ([1]; glutaraldehyde comb./alone, day 1, MIC 1): 0.50; a/A ([1]; glutaraldehyde comb./alone, day 1, MIC 2): 0.50; a/A ([1]; glutaraldehyde comb./alone, day 3, MIC 1): 0.50; a/A ([1]; glutaraldehyde comb./alone, day 3, MIC 2): 0.50; a/A ([1]; glutaraldehyde comb./alone, day 5, MIC 1): 0.50; a/A ([1]; glutaraldehyde comb./alone, day 5, MIC 2): 0.50; a comb. ([1]; glutaraldehyde combined with stabilized hypochlorite and bromide, ppm active ingredient, day 1, MIC 1): 12.50 ppm; a comb. ([1]; glutaraldehyde combined with stabilized hypochlorite and bromide, ppm active ingredient, day 1, MIC 2): 12.50 ppm; a comb. ([1]; glutaraldehyde combined with stabilized hypochlorite and bromide, ppm active ingredient, day 3, MIC 1): 12.50 ppm; a comb. ([1]; glutaraldehyde combined with stabilized hypochlorite and bromide, ppm active ingredient, day 3, MIC 2): 25.00 ppm; a comb. ([1]; glutaraldehyde combined with stabilized hypochlorite and bromide, ppm active ingredient, day 5, MIC 1): 12.50 ppm; a comb. ([1]; glutaraldehyde combined with stabilized hypochlorite and bromide, ppm active ingredient, day 5, MIC 2): 25.00 ppm; A alone ([2]; glutaraldehyde alone, ppm active ingredient, day 1, MBC 1): 25.00 ppm; A alone ([2]; glutaraldehyde alone, ppm active ingredient, day 1, MBC 2): 25.00 ppm; A alone ([2]; glutaraldehyde alone, ppm active ingredient, day 3, MBC 2): 50.00 ppm; a/A ([2]; glutaraldehyde comb./alone, day 1, MBC 1): 0.50; a/A ([2]; glutaraldehyde comb./alone, day 1, MBC 2): 0.50; a/A ([2]; glutaraldehyde comb./alone, day 3, MBC 2): 0.50; a comb. ([2]; glutaraldehyde combined with stabilized hypochlorite and bromide, ppm active ingredient, day 1, MBC 1): 12.50 ppm; a comb. ([2]; glutaraldehyde combined with stabilized hypochlorite and bromide, ppm active ingredient, day 1, MBC 2): 12.50 ppm; a comb. ([2]; glutaraldehyde combined with stabilized hypochlorite and bromide, ppm active ingredient, day 3, MBC 2): 25.00 ppm

**Q.** Which “A alone (MIC)” value ([1]; Day 1, MIC 1) does the source give for “Alkyl*dimethyl benzyl ammonium chloride [ADBAC]” here?
**A.** Its value is 12.50 ppm active ingredient.

**Q.** And the “A alone (MIC)” value ([1]; Day 3, MIC 2)?
**A.** Its value is 50.00 ppm active ingredient.

**Q.** And the “A alone (MBC)” value ([2]; Day 3, MBC 1)?
**A.** Its value is 50.00 ppm active ingredient.

**Q.** What about the “A alone (MBC)” value ([2]; Day 3, MBC 2) of the same molecule?
**A.** The value was 50.00 ppm active ingredient.
